In ChEMBL document CHEMBL1201862, “PubChem BioAssay data set” (2004):
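Compound exposure: 48 hours, 5 concentrations, 96-well plates. GI50 marks 50% less growth.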 Active and inactive are the calls of the source. Rule as the data show it: active = GI50 up to about 1.1 µM and inactive = higher.

Tests used:
Assay in all cases: NCI-60 cell line screen, 48 h
786-0 = test system: 786-0
A549 = test system: A549
ACHN = test system: ACHN
COLO 205 = test system: COLO 205
HCT-15 = test system: HCT-15
HL-60 = test system: HL-60
HOP-62 = test system: HOP-62
IGROV-1 = test system: IGROV-1
K562 = test system: K562
KM12 = test system: KM12
LOX IMVI = test system: LOX IMVI
M14 = test system: M14
NCI-H522 = test system: NCI-H522
OVCAR-5 = test system: OVCAR-5
RXF 393 = test system: RXF 393
SK-OV-3 = test system: SK-OV-3
SN12C = test system: SN12C
UACC-62 = test system: UACC-62

Compound | GI50 (786-0) | GI50 (A549) | GI50 (ACHN) | GI50 (COLO 205) | GI50 (HCT-15) | GI50 (HL-60) | GI50 (HOP-62) | GI50 (IGROV-1) | GI50 (K562) | GI50 (KM12) | GI50 (LOX IMVI) | GI50 (M14) | GI50 (NCI-H522) | GI50 (OVCAR-5) | GI50 (RXF 393) | GI50 (SK-OV-3) | GI50 (SN12C) | GI50 (UACC-62)
N#Cc1c(-c2ccco2)cc(-c2ccccc2)nc1O | > 100 µM (inactive) | > 100 µM (inactive) | > 100 µM (inactive) | > 100 µM (inactive) | > 100 µM | > 100 µM (inactive) | > 100 µM (inactive) | > 100 µM (inactive) | > 100 µM (inactive) | > 100 µM (inactive) | > 100 µM (inactive) | > 100 µM (inactive) | > 100 µM (inactive) | > 100 µM (inactive) | > 100 µM (inactive) | > 100 µM (inactive) | > 100 µM (inactive) | > 100 µM (inactive)
CN/N=C(\C)C(CN1CCCCC1)C(C1=C(O)c2ccccc2OC1)c1ccccc1 (stereo unspecified) | > 100 µM (inactive) | > 100 µM (inactive) | > 100 µM (inactive) | 38.4 µM (inactive) | > 100 µM | 35.2 µM (inactive) | > 100 µM (inactive) | 78.3 µM (inactive) | > 100 µM (inactive) | > 100 µM (inactive) | > 100 µM (inactive) | > 100 µM (inactive) | > 100 µM (inactive) | > 100 µM (inactive) | > 100 µM (inactive) | > 100 µM (inactive) | > 100 µM (inactive) | 48 µM (inactive)
CC1CCP(=O)(c2ccccc2)c2ccccc21 (stereo unspecified) | > 100 µM (inactive) | > 100 µM (inactive) | 42.5 µM (inactive) | 51.8 µM (inactive) | 38.1 µM | 19.6 µM (inactive) | 78.7 µM (inactive) | > 100 µM (inactive) | 25.1 µM (inactive) | > 100 µM (inactive) | 24.3 µM (inactive) | > 100 µM (inactive) | 43.6 µM (inactive) | > 100 µM (inactive) | > 100 µM (inactive) | > 100 µM (inactive) | 26.2 µM (inactive) | 52.8 µM (inactive)
COC(=O)C1=C(C(=O)OC)SC(=CC#CC=C2SC(C(=O)OC)=C(C(=O)OC)S2)S1 | 5.79 µM (inactive) | 25.5 µM (inactive) | 11.8 µM (inactive) | 11.7 µM (inactive) | 12.6 µM | > 100 µM (inactive) | 3.96 µM (inactive) | 18.2 µM (inactive) | > 87.5 µM (inactive) | > 54.6 µM (inactive) | 9.71 µM (inactive) | 13.6 µM (inactive) | 24.4 µM (inactive) | > 90.6 µM (inactive) |  | 16.5 µM (inactive) | 13.5 µM (inactive) | 8.26 µM (inactive)
Cc1cc2c(cc1Br)C1(C)CCC(C)C1(C)O2 (stereo unspecified) | 23.1 µM (inactive) | 36.5 µM (inactive) | 31.2 µM (inactive) | 16.3 µM (inactive) | 36.6 µM | 13.4 µM (inactive) | 30.3 µM (inactive) | 47.6 µM (inactive) | 17.3 µM (inactive) | 31.6 µM (inactive) | 18.6 µM (inactive) | 32.3 µM (inactive) |  | 23.8 µM (inactive) | 15.7 µM (inactive) | 53.3 µM (inactive) | 24.9 µM (inactive) | 44 µM (inactive)
O=C1c2ccoc2C(=O)c2oc(=O)ccc21 | 16.8 µM (inactive) | 20.3 µM (inactive) | 2.86 µM (inactive) | > 41.2 µM (inactive) | 12 µM | 2.32 µM (inactive) | > 46.1 µM (inactive) | 19.6 µM (inactive) | 6.46 µM (inactive) | > 42 µM (inactive) | 2.88 µM (inactive) | 7.82 µM (inactive) | 1.86 µM (inactive) | 19.7 µM (inactive) | 5.86 µM (inactive) | 30.1 µM (inactive) | 11.1 µM (inactive) | 17.1 µM (inactive)
N/N=C1\C(=O)N(CCc2ccccc2)C(=O)C1C(=O)NCCc1ccccc1 (stereo unspecified) | > 100 µM (inactive) | > 100 µM (inactive) | > 100 µM (inactive) |  |  | > 100 µM (inactive) |  | > 100 µM (inactive) | > 100 µM (inactive) | > 100 µM (inactive) | > 100 µM (inactive) | > 100 µM (inactive) | > 100 µM (inactive) |  |  | > 100 µM (inactive) | > 100 µM (inactive) | > 100 µM (inactive)
CC(C)(Oc1ccc(/C=C/C(=O)c2ccc(Cl)cc2)cc1)C(=O)Nc1c(Cl)cccc1Cl | 19.6 µM (inactive) | 31.4 µM (inactive) | 20.9 µM (inactive) | 17.8 µM (inactive) | 15.1 µM |  | 72.3 µM (inactive) | 26.9 µM (inactive) | > 100 µM (inactive) | 11.8 µM (inactive) | 16 µM (inactive) | 17.5 µM (inactive) |  | 41.1 µM (inactive) | 20.6 µM (inactive) | 34 µM (inactive) | 15 µM (inactive) | 17.3 µM (inactive)
CN1C(=O)n2c(nc3ccccc32)C(N=[N+]=[N-])(N=[N+]=[N-])C1=O (stereo unspecified) | > 100 µM (inactive) | > 100 µM (inactive) | > 100 µM (inactive) | > 100 µM (inactive) | 99.1 µM | > 100 µM (inactive) | > 100 µM (inactive) | > 100 µM (inactive) | > 100 µM (inactive) | > 100 µM (inactive) | 77.3 µM (inactive) | > 100 µM (inactive) | > 100 µM (inactive) | > 100 µM (inactive) | > 100 µM (inactive) | > 100 µM (inactive) |  | > 100 µM (inactive)
CC1(C)c2ccccc2N2O[C@@H]3C(=O)N(c4ccccc4)C(=O)[C@@H]3C21c1ccccc1 (stereo partly specified) | > 100 µM (inactive) | > 100 µM (inactive) |  | > 100 µM (inactive) | > 100 µM | 30.8 µM (inactive) | > 100 µM (inactive) | > 100 µM (inactive) | 56.4 µM (inactive) | > 100 µM (inactive) | > 100 µM (inactive) | > 100 µM (inactive) | 41.1 µM (inactive) |  | 14.6 µM (inactive) | > 100 µM (inactive) | > 100 µM (inactive) | > 100 µM (inactive)
N#C/N=C(/NCCc1c[nH]c2ccccc12)Oc1ccccc1 | 8.57 µM (inactive) | 60.4 µM (inactive) | 27.4 µM (inactive) | 59 µM (inactive) | 56.8 µM | 21.6 µM (inactive) | > 100 µM (inactive) | > 100 µM (inactive) | 26.8 µM (inactive) | 40.8 µM (inactive) | 77.4 µM (inactive) | 78.5 µM (inactive) |  | > 100 µM (inactive) | > 100 µM (inactive) | > 100 µM (inactive) | > 100 µM (inactive) | 75.3 µM (inactive)
COC(=O)c1cc(O)ccc1NC(=O)c1ccc(O)cc1 | > 100 µM (inactive) | > 100 µM (inactive) | > 100 µM (inactive) | > 100 µM (inactive) | > 100 µM | > 100 µM (inactive) | > 100 µM (inactive) | > 100 µM (inactive) | > 100 µM (inactive) | > 100 µM (inactive) | > 100 µM (inactive) | > 100 µM (inactive) | 41.4 µM (inactive) | > 100 µM (inactive) |  | > 100 µM (inactive) |  | > 100 µM (inactive)
CC1CC(N2CCOCC2)=Nc2ccccc2N1Cc1ccccc1 (stereo unspecified) | > 100 µM (inactive) | > 100 µM (inactive) | > 100 µM (inactive) | 30.9 µM (inactive) | > 100 µM | 29.8 µM (inactive) | 58.1 µM (inactive) | 25.6 µM (inactive) | 19 µM (inactive) | 68.7 µM (inactive) | 43.9 µM (inactive) | > 100 µM (inactive) | 46.5 µM (inactive) | > 100 µM (inactive) | 16.1 µM (inactive) | 61.2 µM (inactive) | > 100 µM (inactive) | 44.6 µM (inactive)
COc1ccc2c3c(coc13)C(CCC(=O)O)CC2 (stereo unspecified) | > 100 µM (inactive) | > 100 µM (inactive) | > 100 µM (inactive) | > 100 µM (inactive) | > 100 µM |  | > 100 µM (inactive) | > 100 µM (inactive) |  |  | > 100 µM (inactive) | > 100 µM (inactive) |  |  | > 100 µM (inactive) | > 100 µM (inactive) | > 100 µM (inactive) | > 100 µM (inactive)
CCOC1c2nc3ccccc3nc2-c2ccccc2N1C(C)=O (stereo unspecified) | 56.8 µM (inactive) | > 100 µM (inactive) | > 100 µM (inactive) | > 100 µM (inactive) | > 100 µM | > 100 µM (inactive) | > 100 µM (inactive) | > 100 µM (inactive) | 83 µM (inactive) | > 100 µM (inactive) |  | > 100 µM (inactive) |  |  | 28.3 µM (inactive) | > 100 µM (inactive) | > 100 µM (inactive) | > 100 µM (inactive)
CC(C)c1cccc(C(C)C)c1NC(=S)NN=C1C=C(C(C)(C)C)C(=O)C(C(C)(C)C)=C1 | 18.9 µM (inactive) | 19.9 µM (inactive) | 34.4 µM (inactive) | 20.1 µM (inactive) | 37.3 µM | 26.1 µM (inactive) | 16.5 µM (inactive) | 26 µM (inactive) | 23.3 µM (inactive) |  | 18.2 µM (inactive) | 41.6 µM (inactive) |  |  | 16.7 µM (inactive) |  | 22.2 µM (inactive) | 20.3 µM (inactive)
COc1cc2c(cc1OC)-c1cc3cc(OC)c(OC)cc3n1CC2 | 23.4 µM (inactive) | 50.2 µM (inactive) | 31.6 µM (inactive) | 32.4 µM (inactive) |  | > 100 µM (inactive) | 31.6 µM (inactive) | 90.8 µM (inactive) | 26.3 µM (inactive) | 38.5 µM (inactive) |  | 23.4 µM (inactive) | 32.5 µM (inactive) | > 100 µM (inactive) |  | 30.5 µM (inactive) | > 100 µM (inactive) | 85.5 µM (inactive)
